According to USRE50642E1, “Anti-androgens for the treatment of non-metastatic castrate-resistant prostate cancer” (Aragon Pharmaceuticals, Inc., priority 2012, dated 2025):

Columns and labels:
[1] = test system: non-castrate hormone-sensitive and bicalutamide-resistant human prostate cancer xenograft models; details: non-castrate hormone-sensitive and bicalutamide-resistant xenografts; Clegg et al. Cancer Res 2012; cited from earlier work
[2] = test system: male humans with non-metastatic castration-resistant prostate cancer; test: Phase II clinical trial in non-metastatic castration-resistant prostate cancer, PSA decline from baseline; format: in vivo, human; details: 240 mg orally, continuous daily dosing schedule
T877A AR mutant = target: T1, T877A AR mutant (Homo sapiens, UniProt P10275, T878A); details: cited from earlier work
T1 sequence (P10275 1-920 T878A): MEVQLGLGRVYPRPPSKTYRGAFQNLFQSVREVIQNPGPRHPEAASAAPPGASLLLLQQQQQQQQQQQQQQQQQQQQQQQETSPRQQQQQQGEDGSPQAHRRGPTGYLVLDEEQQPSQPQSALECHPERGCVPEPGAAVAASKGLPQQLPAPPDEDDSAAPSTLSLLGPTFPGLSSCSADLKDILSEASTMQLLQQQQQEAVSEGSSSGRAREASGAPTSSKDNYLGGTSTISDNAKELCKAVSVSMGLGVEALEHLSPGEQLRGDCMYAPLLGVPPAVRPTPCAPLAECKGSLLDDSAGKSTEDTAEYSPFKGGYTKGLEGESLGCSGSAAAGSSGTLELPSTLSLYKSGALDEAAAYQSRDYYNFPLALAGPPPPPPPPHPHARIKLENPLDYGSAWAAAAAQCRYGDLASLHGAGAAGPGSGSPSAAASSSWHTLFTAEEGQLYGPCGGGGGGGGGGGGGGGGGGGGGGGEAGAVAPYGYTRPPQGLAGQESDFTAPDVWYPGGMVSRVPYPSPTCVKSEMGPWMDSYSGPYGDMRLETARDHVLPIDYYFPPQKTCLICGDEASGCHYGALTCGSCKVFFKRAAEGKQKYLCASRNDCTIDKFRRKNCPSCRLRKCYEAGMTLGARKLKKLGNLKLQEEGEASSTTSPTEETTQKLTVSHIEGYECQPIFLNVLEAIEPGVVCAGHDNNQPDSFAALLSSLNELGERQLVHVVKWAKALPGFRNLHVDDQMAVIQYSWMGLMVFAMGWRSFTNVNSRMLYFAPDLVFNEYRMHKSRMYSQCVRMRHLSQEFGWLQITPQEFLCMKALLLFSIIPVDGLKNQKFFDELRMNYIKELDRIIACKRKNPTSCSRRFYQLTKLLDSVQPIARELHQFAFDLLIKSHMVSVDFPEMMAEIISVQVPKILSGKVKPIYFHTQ

| Structure (SMILES) | tumor regression [1] | PSA50 (≥50% decline in PSA from baseline), share of males ([2]; at 3 months) [%] | PSA90 (≥90% decline in PSA from baseline), share of males ([2]; at 3 months) [%] | PSA50 (≥50% decline in PSA from baseline), share of males ([2]; at 6 months) [%] | PSA90 (≥90% decline in PSA from baseline), share of males ([2]; at 6 months) [%] | activity in T877A AR mutant (T877A AR mutant) |
| --- | --- | --- | --- | --- | --- | --- |
| CNC(=O)c1ccc(N2C(=S)N(c3cnc(C#N)c(C(F)(F)F)c3)C(=O)C23CCC3)cc1F [4-[7-(6-cyano-5-trifluoromethylpyridin-3-yl)-8-oxo-6-thioxo-5,7-diazaspiro[3.4]oct-5-yl]-2-fluoro-N-methylbenzamide] | partial or complete tumor regression | 91 | 38 | 91 | 55 | – |
| CC(C)(O)C(=O)Nc1ccc([N+](=O)[O-])c(C(F)(F)F)c1 [hydroxyflutamide] | – | – | – | – | – | act as AR agonists |
